Test results as given in patent US20260001928A1 (CORTERIA PHARMACEUTICALS, priority 2022, published 2026).
*1 amine or outer side, *2 acyl side, *3 side chain or, on linkers, in order; H or OH if unused. Where a SMILES comes first, the peptide text is derived from it. Side-chain parts run from the residue outwards. [ ]: non-standard residue; d: D form. The star is where a group is joined. C18 diacid = O=C(O)CCCCCCCCCCCCCCCCC(=O)*; C16 diacid = O=C(O)CCCCCCCCCCCCCCC(=O)*; γGlu = O=C(O)[C@H](CCC(=O)[*:2])N[*:1]; NMeI = CC[C@H](C)[C@H](NC)C(=O)O; Ac6c = NC1(C(=O)O)CCCCC1; Api = NC1(C(=O)O)CCNCC1; Abu = CC[C@H](N)C(=O)O; AEEA = NCCOCCOCC(=O)O; Butyryl = CCCC(=O)*

Tests used:
[1] = target: T1, human CRF2a receptor (Homo sapiens, UniProt Q13324); assay: Activity at human CRF2a receptor, cAMP functional assay in TeloHEAC cells; assay type: cell-based; conditions: TeloHEAC cells stably expressing human CRF2a receptor, relative to urocortin 2 (100 nM = 100%)
T1 construct: expressed in transfected cells; host or cells: TeloHEAC cells
T1 sequence (Q13324 1-411): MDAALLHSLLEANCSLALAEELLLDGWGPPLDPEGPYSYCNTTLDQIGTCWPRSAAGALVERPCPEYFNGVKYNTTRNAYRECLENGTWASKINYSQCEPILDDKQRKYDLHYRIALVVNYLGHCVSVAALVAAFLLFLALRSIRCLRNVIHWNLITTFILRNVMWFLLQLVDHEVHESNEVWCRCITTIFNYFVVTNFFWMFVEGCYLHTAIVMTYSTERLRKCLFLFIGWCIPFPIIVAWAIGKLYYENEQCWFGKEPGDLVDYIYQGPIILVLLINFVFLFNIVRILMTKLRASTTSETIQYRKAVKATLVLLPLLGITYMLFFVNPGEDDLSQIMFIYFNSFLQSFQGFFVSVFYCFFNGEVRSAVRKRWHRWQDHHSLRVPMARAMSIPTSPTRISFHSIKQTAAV
Outline: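 cAMP accumulation was measured by HTRF 665/620 nm ratio after 30 min at 37° C compound exposure (16 twofold dilutions) of CRF2a-expressing TeloHEAC cells, 10000/well, in HEPES-buffered HBSS plus IBMX. Activity was normalised to urocortin 2 at 100 nM (100%), and EC50 was the concentration giving half-maximal activation.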

[2] = target: T2, CFR1R receptor (Homo sapiens, UniProt P34998); assay: Activity at anti-target CFR1R receptor, cAMP assay in CRF1R-overexpression CHO-K1 cells; assay type: cell-based; conditions: 100% = Sauvagine at 100 nM; for EC50: cAMP
T2 construct: host or cells: CHO-K1 (clone 2)
T2 sequence (P34998 24-415): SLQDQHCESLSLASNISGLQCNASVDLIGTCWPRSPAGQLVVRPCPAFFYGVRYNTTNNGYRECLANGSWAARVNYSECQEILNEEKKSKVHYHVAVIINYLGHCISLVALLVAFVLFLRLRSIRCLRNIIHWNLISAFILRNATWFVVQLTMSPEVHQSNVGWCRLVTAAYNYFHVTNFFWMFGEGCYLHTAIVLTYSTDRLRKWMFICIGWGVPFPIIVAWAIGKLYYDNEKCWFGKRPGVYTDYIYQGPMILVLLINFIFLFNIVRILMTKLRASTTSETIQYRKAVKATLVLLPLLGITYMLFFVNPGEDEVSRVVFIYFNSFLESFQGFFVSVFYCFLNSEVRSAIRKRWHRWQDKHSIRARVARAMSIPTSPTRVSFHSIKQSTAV
Outline: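 Signal is normalised to 100 nM Sauvagine, taken as 100% activation, in clone 2 cells plated at a final 4000 cells/well from frozen stocks.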

Compound	EC50 [1] [nM]	Emax (% I) [2] [% I]	EC50 [2] [nM]
CC[C@H](C)[C@H](NC(C)=O)C(=O)N[C@H](C(=O)N[C@@H](CC(C)C)C(=O)N[C@@H](CO)C(=O)N[C@@H](CC(C)C)C(=O)N[C@@H](CC(=O)O)C(=O)N[C@@H](C(=O)N1CCC[C@H]1C(=O)N[C@H](C(=O)N[C@@H](CCCCN)C(=O)N[C@@H](CC(C)C)C(=O)N[C@@H](CCCCNC(=O)CC[C@H](NC(=O)CCCCCCCCCCCCCCC(=O)O)C(=O)O)C(=O)N[C@@H](CCCCN)C(=O)N[C@H](C(=O)N[C@@H](CC(C)C)C(=O)N[C@@H](CC(C)C)C(=O)N[C@@H](CCC(=O)O)C(=O)N[C@@H](CCC(N)=O)C(=O)N[C@@H](CCC(=O)O)C(=O)N[C@@H](CCCCN)C(=O)N[C@@H](CCC(N)=O)C(=O)N[C@@H](CCCCN)C(=O)N[C@@H](CCCCN)C(=O)N[C@@H](CCC(N)=O)C(=O)N[C@@H](CCCNC(=N)N)C(=O)N[C@@H](CCC(=O)O)C(=O)N[C@@H](CCC(N)=O)C(=O)N[C@@H](C)C(=O)N[C@@H](CCC(=O)O)C(=O)N[C@H](C(=O)N[C@@H](CC(N)=O)C(=O)NC1(C(=O)N[C@@H](CCC(N)=O)C(=O)N[C@H](C(=O)N[C@@H](CC(C)C)C(=O)N[C@@H](C)C(=O)N[C@@H](CCC(N)=O)C(=O)N[C@H](C(N)=O)C(C)C)[C@@H](C)CC)CCCCC1)[C@@H](C)O)[C@@H](C)CC)[C@@H](C)CC)C(C)C)C(C)C [compound 59] (Ac-IVLSLD[dV]PIKLK([γGlu-C16 diacid])KILLEQEKQKKQREQAETN[Ac6c]QILAQV-NH2)	0.81	9	> 250
CCCC(=O)N[C@H](C(=O)N[C@@H](CC(C)C)C(=O)N[C@@H](CO)C(=O)N[C@@H](CC(C)C)C(=O)N[C@@H](CC(=O)O)C(=O)N[C@H](C(=O)N1CCC[C@H]1C(=O)N[C@H](C(=O)N[C@@H](CCCCN)C(=O)N[C@@H](CC(C)C)C(=O)N[C@@H](CCCCNC(=O)COCCOCCNC(=O)COCCOCCNC(=O)CC[C@H](NC(=O)CCCCCCCCCCCCCCCCC(=O)O)C(=O)O)C(=O)N[C@@H](CCCCN)C(=O)N[C@H](C(=O)N[C@@H](CC(C)C)C(=O)N[C@@H](CC(C)C)C(=O)N[C@@H](CCC(=O)O)C(=O)N[C@@H](CCC(N)=O)C(=O)N[C@@H](CCC(=O)O)C(=O)N[C@@H](CCCCN)C(=O)N[C@@H](CCC(N)=O)C(=O)N[C@@H](CCCCN)C(=O)N[C@@H](CCCCN)C(=O)N[C@@H](CCC(N)=O)C(=O)N[C@@H](CCCNC(=N)N)C(=O)N[C@@H](CCC(=O)O)C(=O)N[C@@H](CCC(N)=O)C(=O)N[C@@H](C)C(=O)N[C@@H](CCC(=O)O)C(=O)N[C@H](C(=O)N[C@@H](CC(N)=O)C(=O)N[C@@H](CCCCN)C(=O)N[C@@H](CCC(N)=O)C(=O)N[C@H](C(=O)N[C@@H](CC(C)C)C(=O)N[C@@H](C)C(=O)N[C@@H](CCC(N)=O)C(=O)N[C@H](C(N)=O)C(C)C)[C@@H](C)CC)[C@@H](C)O)[C@@H](C)CC)[C@@H](C)CC)C(C)C)C(C)C [compound 95] (Butyryl-VLSLDVPIKLK([AEEA-AEEA-γGlu-C18 diacid])KILLEQEKQKKQREQAETNKQILAQV-NH2)	0.76	5	> 250
CC[C@H](C)[C@H](NC)C(=O)N[C@H](C(=O)N[C@@H](CC(C)C)C(=O)N[C@@H](CO)C(=O)N[C@@H](CC(C)C)C(=O)N[C@@H](CC(=O)O)C(=O)N[C@@H](C(=O)N1CCC[C@H]1C(=O)N[C@H](C(=O)N[C@@H](CCCCN)C(=O)N[C@@H](CC(C)C)C(=O)N[C@@H](CCCCNC(=O)CC[C@H](NC(=O)CCCCCCCCCCCCCCC(=O)O)C(=O)O)C(=O)N[C@@H](CCCCN)C(=O)N[C@H](C(=O)N[C@@H](CC(C)C)C(=O)N[C@@H](CC(C)C)C(=O)N[C@@H](CCC(=O)O)C(=O)N[C@@H](CCC(N)=O)C(=O)N[C@@H](CCC(=O)O)C(=O)N[C@@H](CCCCN)C(=O)N[C@@H](CCC(N)=O)C(=O)N[C@@H](CCCCN)C(=O)N[C@@H](C)C(=O)N[C@@H](CCC(N)=O)C(=O)N[C@@H](CCCNC(=N)N)C(=O)N[C@@H](CCC(=O)O)C(=O)N[C@@H](CCC(N)=O)C(=O)N[C@@H](C)C(=O)N[C@@H](CCC(=O)O)C(=O)N[C@H](C(=O)N[C@@H](CC(N)=O)C(=O)NC1(C(=O)N[C@@H](CCC(N)=O)C(=O)N[C@H](C(=O)N[C@@H](CC(C)C)C(=O)N[C@@H](C)C(=O)N[C@@H](CCC(N)=O)C(=O)N[C@H](C(N)=O)C(C)C)[C@@H](C)CC)CCNCC1)[C@@H](C)O)[C@@H](C)CC)[C@@H](C)CC)C(C)C)C(C)C [compound 154] (H-[NMeI]VLSLD[dV]PIKLK([γGlu-C16 diacid])KILLEQEKQKAQREQAETN[Api]QILAQV-NH2)	0.52	24	> 250
CC[C@H](C)[C@H](NC(C)=O)C(=O)N[C@H](C(=O)N[C@@H](CC(C)C)C(=O)N[C@@H](CO)C(=O)N[C@@H](CC(C)C)C(=O)N[C@@H](CC(=O)O)C(=O)N[C@@H](C(=O)N1CCC[C@H]1C(=O)N[C@H](C(=O)N[C@@H](CCCCN)C(=O)N[C@@H](CC(C)C)C(=O)N[C@@H](CCCCNC(=O)CC[C@H](NC(=O)CCCCCCCCCCCCCCCCC(=O)O)C(=O)O)C(=O)N[C@@H](CCCCN)C(=O)N[C@H](C(=O)N[C@@H](CC(C)C)C(=O)N[C@@H](CC(C)C)C(=O)N[C@@H](CCC(=O)O)C(=O)N[C@@H](CCC(N)=O)C(=O)N[C@@H](CCC(=O)O)C(=O)N[C@@H](CCCCN)C(=O)N[C@@H](CCC(N)=O)C(=O)N[C@@H](CCCCN)C(=O)N[C@@H](CCCCN)C(=O)N[C@@H](CCC(N)=O)C(=O)N[C@@H](CCCNC(=N)N)C(=O)N[C@@H](CCC(=O)O)C(=O)N[C@@H](CCC(N)=O)C(=O)N[C@@H](C)C(=O)N[C@@H](CCC(=O)O)C(=O)N[C@H](C(=O)N[C@@H](CC(N)=O)C(=O)N[C@@H](C)C(=O)N[C@@H](CCC(N)=O)C(=O)N[C@H](C(=O)N[C@@H](CC(C)C)C(=O)N[C@@H](C)C(=O)N[C@@H](CCC(N)=O)C(=O)N[C@H](C(N)=O)C(C)C)[C@@H](C)CC)[C@@H](C)O)[C@@H](C)CC)[C@@H](C)CC)C(C)C)C(C)C [compound 126] (Ac-IVLSLD[dV]PIKLK([γGlu-C18 diacid])KILLEQEKQKKQREQAETNAQILAQV-NH2)	0.05	20	> 250
CC[C@H](NC(=O)[C@H](CC(N)=O)NC(=O)[C@@H](NC(=O)[C@H](CCC(=O)O)NC(=O)[C@H](C)NC(=O)[C@H](CCC(N)=O)NC(=O)[C@H](CCC(=O)O)NC(=O)[C@H](CCCNC(=N)N)NC(=O)[C@H](CCC(N)=O)NC(=O)[C@H](CCCCN)NC(=O)[C@H](CCCCN)NC(=O)[C@H](CCC(N)=O)NC(=O)[C@H](CCCCN)NC(=O)[C@H](CCC(=O)O)NC(=O)[C@H](CCC(N)=O)NC(=O)[C@H](CCC(=O)O)NC(=O)[C@H](CC(C)C)NC(=O)[C@H](CC(C)C)NC(=O)[C@@H](NC(=O)[C@H](CCCCN)NC(=O)[C@H](CCCCNC(=O)CC[C@H](NC(=O)CCCCCCCCCCCCCCCCC(=O)O)C(=O)O)NC(=O)[C@H](CC(C)C)NC(=O)[C@H](CCCCN)NC(=O)[C@@H](NC(=O)[C@@H]1CCCN1C(=O)[C@H](NC(=O)[C@H](CC(=O)O)NC(=O)[C@H](CC(C)C)NC(=O)[C@H](CO)NC(=O)[C@H](CC(C)C)NC(=O)[C@@H](NC(=O)[C@@H](NC)[C@@H](C)CC)C(C)C)C(C)C)[C@@H](C)CC)[C@@H](C)CC)[C@@H](C)O)C(=O)N[C@@H](CCC(N)=O)C(=O)N[C@H](C(=O)N[C@@H](CC(C)C)C(=O)N[C@@H](C)C(=O)N[C@@H](CCC(N)=O)C(=O)N[C@H](C(N)=O)C(C)C)[C@@H](C)CC [compound 139] (H-[NMeI]VLSLD[dV]PIKLK([γGlu-C18 diacid])KILLEQEKQKKQREQAETN[Abu]QILAQV-NH2)	0.05	13	> 250
